Active and inactive are the calls of the source.
Columns and labels:
[1] = A cytotoxicity screen of small molecule inhibitors of the PhoP region in Salmonella typhi identified in the primary screen. [Related pubchem assays: 1850, 1864, 1985 ]; format: functional
[2] = blockers of HIV-1 envelope-mediated cell-cell fusion – cherry-pick, dose response (AID 652057); format: functional, cell-based
[3] = off-target signal loss in HeLa-CEM21 co-culture – HeLa F-luc CTL cells, cherry-picked, counter-screen for HIV-1 Env fusion inhibitor project, dose response (AID 652040); format: functional, cell-based;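 note: potency for signal decrease marking cytotoxic or nonspecific inhibition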
[4] = HIV-1 AD8 envelope cell-cell fusion blockers – cherry-pick, dose response (AID 652062); format: functional, cell-based;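 note: luciferase signal from cell-cell fusion driven by HIV-1 clade B AD8 Env; potency is for inhibitors of fusion seen as a drop in luminescence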
[5] = Luminescence Cell-Based Dose Response to Identify Activators of 5'UTR Stem-Loop Driven Prion Protein mRNA Translation in H4-C Neuroglioblastoma Cells. [Related pubchem assays: 1829 (Project Summary), 1814 (Primary HTS)]; format: functional
[6] = Luminescence Cell-Based Dose Response HTS to Identify Activators of Luciferase Translation or Activity in H4 […] Cells. [Related pubchem assays: 1829 (Project Summary), 1814 (Primary HTS)]; format: functional
H4 = assay: Luminescence Cell-Based Dose Response HTS to Identify Activators of 5'UTR Stem-Loop Driven Prion Protein mRNA Translation in H4 Neuroglioblastoma Cells. [Related pubchem assays: 1829 (Project Summary), 1814 (Primary HTS)]; format: functional; conditions: Homo sapiens
[7] = Luminescence Cell-Based Dose Response to Identify Activators of Luciferase Translation or Activity in H4-C Neuroglioblastoma Cells. [Related pubchem assays: 1829 (Project Summary), 1814 (Primary HTS)]; format: functional
Estrogen receptor = biological target: T1, Estrogen receptor (Homo sapiens, UniProt P03372);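 note: potency for inhibiting coactivator peptide recruitment to the receptor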
T1 sequence (P03372 whole entry): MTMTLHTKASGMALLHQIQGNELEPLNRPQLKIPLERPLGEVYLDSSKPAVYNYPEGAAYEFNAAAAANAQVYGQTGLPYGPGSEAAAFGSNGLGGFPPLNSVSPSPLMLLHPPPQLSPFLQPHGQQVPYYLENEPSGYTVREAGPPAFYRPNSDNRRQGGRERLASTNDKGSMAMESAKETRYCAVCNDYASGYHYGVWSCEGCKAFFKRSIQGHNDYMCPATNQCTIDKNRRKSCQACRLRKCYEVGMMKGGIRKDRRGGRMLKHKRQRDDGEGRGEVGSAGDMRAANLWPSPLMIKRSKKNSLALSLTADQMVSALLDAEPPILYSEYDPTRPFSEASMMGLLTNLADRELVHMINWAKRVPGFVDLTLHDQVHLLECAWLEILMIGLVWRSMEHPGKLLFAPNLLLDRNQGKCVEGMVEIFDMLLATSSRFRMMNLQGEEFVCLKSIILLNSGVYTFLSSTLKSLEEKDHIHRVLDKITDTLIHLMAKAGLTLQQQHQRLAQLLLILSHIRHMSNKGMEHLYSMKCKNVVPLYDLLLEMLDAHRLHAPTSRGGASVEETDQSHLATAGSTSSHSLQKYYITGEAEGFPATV

[8] = Luminescence Cell-Based Dose Confirmation to Identify Activators of 5'UTR Stem-Loop Driven Alpha-Synuclein mRNA Translation in H4 Neuroglioblastoma Cells. [Related pubchem assays: 1829 (Project Summary), 1814 (Primary HTS)]; format: functional
[9] = A Cell Based Secondary Assay To Explore Cytotoxicity of Compounds that Sensitize Mycobacterium Tuberculosis to Beta-Lactam Antibiotics.; format: functional
[10] = biological target: T2, Sentrin-specific protease 8 (Homo sapiens, UniProt Q96LD8); format: functional
T2 sequence (Q96LD8 whole entry): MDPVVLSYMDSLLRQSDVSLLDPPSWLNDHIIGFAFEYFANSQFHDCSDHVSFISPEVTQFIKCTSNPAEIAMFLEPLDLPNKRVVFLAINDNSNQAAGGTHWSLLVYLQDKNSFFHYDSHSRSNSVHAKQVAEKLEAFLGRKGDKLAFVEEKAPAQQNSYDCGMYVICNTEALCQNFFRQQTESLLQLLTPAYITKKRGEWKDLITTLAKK

[11] = biological target: T2, Sentrin-specific protease 8; format: functional; remark: listed apart in the source
[12] = biological target: T3, Replicative DNA helicase DnaB (Mycobacterium tuberculosis, UniProt P9WMR3); assay: DnaB intein splicing inhibitors, dose response, biochemical, cell-free fluorescence (AID 449749); format: functional
T3 sequence (P9WMR3 whole entry): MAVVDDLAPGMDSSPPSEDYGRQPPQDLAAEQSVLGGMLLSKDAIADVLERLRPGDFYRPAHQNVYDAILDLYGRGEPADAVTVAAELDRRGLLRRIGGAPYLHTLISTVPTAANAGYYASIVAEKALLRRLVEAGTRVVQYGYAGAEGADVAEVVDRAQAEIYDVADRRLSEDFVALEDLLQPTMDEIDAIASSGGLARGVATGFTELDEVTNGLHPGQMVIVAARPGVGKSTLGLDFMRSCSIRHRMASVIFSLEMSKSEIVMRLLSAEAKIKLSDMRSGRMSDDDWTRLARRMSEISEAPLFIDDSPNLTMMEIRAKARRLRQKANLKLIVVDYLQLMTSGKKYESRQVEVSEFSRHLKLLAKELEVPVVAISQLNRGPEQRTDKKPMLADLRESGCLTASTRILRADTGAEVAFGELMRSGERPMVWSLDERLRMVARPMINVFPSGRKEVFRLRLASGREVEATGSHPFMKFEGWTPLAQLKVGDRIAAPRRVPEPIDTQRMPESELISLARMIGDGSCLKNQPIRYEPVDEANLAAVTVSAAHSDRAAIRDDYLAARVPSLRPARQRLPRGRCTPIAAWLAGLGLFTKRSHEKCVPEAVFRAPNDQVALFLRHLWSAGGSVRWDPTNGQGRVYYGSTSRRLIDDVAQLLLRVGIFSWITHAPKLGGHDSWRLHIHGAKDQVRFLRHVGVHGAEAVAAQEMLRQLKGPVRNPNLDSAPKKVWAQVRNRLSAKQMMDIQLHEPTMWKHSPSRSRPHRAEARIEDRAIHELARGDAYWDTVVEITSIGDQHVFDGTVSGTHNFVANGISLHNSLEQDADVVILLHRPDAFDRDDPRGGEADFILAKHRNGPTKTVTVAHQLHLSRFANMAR

Protein RecA = biological target: T4, Protein RecA (Mycobacterium tuberculosis, UniProt P9WHJ3); assay: Fluorescence Cell-Free Homogeneous Dose Retest to Identify Inhibitors of RecA-Intein Splicing Activity. [Related pubchem assays (depositor defined):AID2097, AID2223, AID489010, AID492950]; format: functional
T4 sequence (P9WHJ3 whole entry): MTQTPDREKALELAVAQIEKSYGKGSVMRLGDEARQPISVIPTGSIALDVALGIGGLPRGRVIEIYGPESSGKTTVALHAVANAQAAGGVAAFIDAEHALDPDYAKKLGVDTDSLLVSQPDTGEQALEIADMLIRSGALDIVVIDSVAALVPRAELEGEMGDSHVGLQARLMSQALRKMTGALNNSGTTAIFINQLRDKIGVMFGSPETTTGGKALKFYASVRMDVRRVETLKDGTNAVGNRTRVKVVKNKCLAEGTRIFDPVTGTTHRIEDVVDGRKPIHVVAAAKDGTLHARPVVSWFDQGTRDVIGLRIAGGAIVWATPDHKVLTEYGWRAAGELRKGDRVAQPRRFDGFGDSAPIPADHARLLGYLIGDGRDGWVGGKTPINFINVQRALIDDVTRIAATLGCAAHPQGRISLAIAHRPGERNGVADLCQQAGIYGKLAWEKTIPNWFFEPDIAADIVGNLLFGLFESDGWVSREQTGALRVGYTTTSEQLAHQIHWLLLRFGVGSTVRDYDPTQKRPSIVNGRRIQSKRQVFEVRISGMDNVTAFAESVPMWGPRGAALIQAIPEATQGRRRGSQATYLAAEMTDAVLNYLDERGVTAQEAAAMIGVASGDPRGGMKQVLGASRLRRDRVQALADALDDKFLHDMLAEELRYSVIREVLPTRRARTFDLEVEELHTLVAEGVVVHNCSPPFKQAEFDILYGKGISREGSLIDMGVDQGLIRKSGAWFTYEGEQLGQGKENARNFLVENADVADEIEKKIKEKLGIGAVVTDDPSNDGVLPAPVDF

[13] = Fluorescence-based cell-based high throughput dose response assay for inhibitors of the interaction of nucleotide-binding oligomerization domain containing 2 (NOD2) and the receptor-interacting serine-threonine kinase 2 (RIPK2).; format: functional; conditions: Homo sapiens
[14] = biological target: ADP-ribosylation factor GTPase-activating protein 1 (Rattus norvegicus, UniProt Q62848); assay: Fluorescence polarization-based biochemical high throughput dose response screening assay to identify inhibitors of ADP-ribosylation factor GTPase activating protein 1 (ARFGAP1).; format: functional
[15] = Trypanosoma cruzi growth suppression in host cells – NIH3T3 host cells, beta-gal luminescence, confirmation (AID 2044); format: functional, cell-based;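 note: intracellular parasites grown in NIH/3T3 mouse fibroblasts as host cells; luminescent beta-galactosidase reporter signal from transgenic T. cruzi replicating inside host cells; inhibitors lower the luminescence signal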
[16] = viability of PTEN-deleted HCT116 cells – cell-based, HCT116 PTEN knockout, dose response (AID 1047); format: functional;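 note: HCT116 colon tumor cells with PTEN knocked out; cells exposed to compound for 60 hours before readout; potency for loss of cell viability measured by luminescence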
[17] = NIH3T3 cell viability loss – ATP luminescence, mouse fibroblasts, counter-screen, dose response (AID 2010); format: functional, cell-based;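 note: cells exposed to compound for about 90 hours before reading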
[18] = viability of HCT116 lacking mutant beta-catenin – cell-based, human colon tumor, dose response (AID 1045); format: functional;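 note: HCT116 colon tumor cells with beta catenin knocked out; cells exposed to compound for 60 hours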
[19] = general cell-killing toxicity readout – plate reader, dry powder samples, cytotoxicity control for PAX8 inhibitor project, dose response (AID 743021); format: functional, cell-based
[20] = biological target: T5, Heat shock factor protein 1 (Mus musculus, UniProt P38532); assay: decrease of HSF1-responsive luciferase luminescence – cell-based, NIH3T3, dose retest, confirmation (AID 2382); format: functional;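 note: NIH3T3 fibroblasts with HSF1-driven luciferase reporter stressed by proteasome inhibitor MG132; luminescence from HSF1-driven luciferase expression after 8 hours of MG132 stress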
T5 sequence (P38532 whole entry): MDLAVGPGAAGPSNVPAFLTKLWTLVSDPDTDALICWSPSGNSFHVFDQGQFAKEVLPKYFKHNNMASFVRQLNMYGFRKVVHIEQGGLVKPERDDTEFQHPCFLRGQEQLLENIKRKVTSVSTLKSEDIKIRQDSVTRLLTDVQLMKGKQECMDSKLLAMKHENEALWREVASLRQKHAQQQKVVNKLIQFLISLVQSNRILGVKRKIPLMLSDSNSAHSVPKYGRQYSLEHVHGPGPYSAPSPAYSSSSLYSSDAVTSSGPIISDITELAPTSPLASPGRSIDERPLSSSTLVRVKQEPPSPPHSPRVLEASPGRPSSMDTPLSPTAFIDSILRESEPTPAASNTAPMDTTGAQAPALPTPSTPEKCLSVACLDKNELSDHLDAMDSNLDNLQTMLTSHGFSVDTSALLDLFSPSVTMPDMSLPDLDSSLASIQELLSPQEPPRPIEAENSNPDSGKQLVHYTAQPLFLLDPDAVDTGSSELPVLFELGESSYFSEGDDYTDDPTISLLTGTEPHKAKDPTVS

[21] = Luminescence-based counterscreen assay for KLF5 inhibitors: dose response cell-based high throughput screening assay to identify cytotoxic compounds using the IEC-6 intestinal epithelial cell line. [Related pubchem assays: 1700 (Primary screen.), 1834 (Confirmation screen.), 1858 (Summary AID.), 1905 (Counterscreen.)]; format: functional
[22] = blockers of HIV-1 ZM109 envelope-driven cell-cell fusion – HeLa effector, CEM target cells, luciferase, cherry-pick, dose response (AID 652058); format: functional, cell-based;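 note: luciferase signal from HIV-1 Env mediated cell-cell fusion of effector and target cells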
Paired box protein Pax-8 = Paired box protein Pax-8 (Homo sapiens, UniProt Q06710); assay: PAX8 transcriptional activity inhibition in RMG-I – RMG-I cells, luciferase, cherry-pick, dose response (AID 687027); format: functional, cell-based;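 note: luciferase reporter driven by Pax8 target thyroperoxidase promoter measured by SteadyGlo luminescence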
Paired box protein Pax-8, sequence (Q06710 whole entry): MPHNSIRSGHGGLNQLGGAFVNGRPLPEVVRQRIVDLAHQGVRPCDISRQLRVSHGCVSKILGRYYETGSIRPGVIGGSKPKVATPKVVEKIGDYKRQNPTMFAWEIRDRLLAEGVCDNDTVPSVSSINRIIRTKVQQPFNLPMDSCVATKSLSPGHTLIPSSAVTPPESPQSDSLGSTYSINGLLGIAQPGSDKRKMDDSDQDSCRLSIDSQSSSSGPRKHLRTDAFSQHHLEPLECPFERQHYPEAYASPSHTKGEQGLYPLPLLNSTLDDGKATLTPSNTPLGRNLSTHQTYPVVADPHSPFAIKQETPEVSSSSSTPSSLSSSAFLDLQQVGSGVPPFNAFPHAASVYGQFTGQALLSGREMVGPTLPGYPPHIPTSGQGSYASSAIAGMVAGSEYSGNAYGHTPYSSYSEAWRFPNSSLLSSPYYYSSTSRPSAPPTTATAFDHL

ADP-ribosylation factor GTPase-activating protein 1, sequence (Q62848 whole entry): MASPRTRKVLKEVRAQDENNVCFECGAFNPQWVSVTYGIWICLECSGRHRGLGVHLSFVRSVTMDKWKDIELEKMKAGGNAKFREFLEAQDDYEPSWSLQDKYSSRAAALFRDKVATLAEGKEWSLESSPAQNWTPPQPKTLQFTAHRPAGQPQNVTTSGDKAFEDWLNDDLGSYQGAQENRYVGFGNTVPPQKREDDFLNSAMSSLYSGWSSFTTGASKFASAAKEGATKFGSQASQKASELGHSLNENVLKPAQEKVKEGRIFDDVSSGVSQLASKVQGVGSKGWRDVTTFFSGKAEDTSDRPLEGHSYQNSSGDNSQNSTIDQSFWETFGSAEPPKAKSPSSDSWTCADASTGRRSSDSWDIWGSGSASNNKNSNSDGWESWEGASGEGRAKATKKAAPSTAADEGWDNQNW

O=C(c1ccc2c3c(cccc13)CC2)C1CCCN(Cc2ncc[nH]2)C1 (stereo not drawn)
EC50 [1]: > 50 µM (active)

O=C(CN1CCCN(Cc2ccc(F)cc2Cl)C1=O)NC1CCCCCCC1
AC50 [2]: 30.1 µM (active)
AC50 [3]: > 70 µM (inactive)
AC50 [4]: 44.3 µM (active)

O=C(COC(=O)CC1CCCC1)Nc1cc2c(cc1Cl)C(=O)c1ccccc1C2=O
EC50 [5]: 2.27 µM (active)
EC50 [6]: < 0.1 µM (inconclusive)
EC50 (H4): 21.7 µM (active)
EC50 [7]: 0.438 µM (active)
IC50 (Estrogen receptor): 22.3 µM (active)
EC50 [8]: 0.497 µM (active)

Cc1onc(-c2ccccc2Cl)c1C(=O)NCc1cccnc1
IC50 (Estrogen receptor): > 50 µM (not active)

O=C(COC(=O)CCOc1ccccc1)NCc1ccco1
IC50 (Estrogen receptor): 16.6 µM (active)

CCSc1nnc(NC(=O)C2Cc3ccccc3CN2C(=O)c2ccco2)s1 (stereo not drawn)
CC50 [9]: > 40 µM (active)
IC50 (Estrogen receptor): 7.47 µM (active)

CCn1cnc2cc(NCc3ccc(Br)cc3)ccc21
EC50 [1]: > 50 µM (active)

O=S1(=O)NC2c3ccccc3CC2O1 (stereo not drawn)
IC50 [10]: 19.5 µM (active)
IC50 [11]: 9.78 µM (active)

O=C(Nc1ccc(F)cc1)c1nn(-c2ccccc2)c(=O)cc1Cl
AC50 [12]: 11.9 µM (active)
EC50 (Protein RecA): 8.71 µM (active)
IC50 [13]: 4.16 µM (active)

O=C(/C=C/c1c(F)cccc1Cl)N1CCOCC1
EC50 [1]: > 50 µM (active)

Cc1ccc2nc(SCC(=O)N3CCCC3)nc(=O)n2c1
IC50 [14]: 45.2 µM (inactive)

N#Cc1c(NC(=O)C2CC(c3c(F)cccc3Cl)=NO2)sc2c1CCC2 (stereo not drawn)
IC50 [14]: 43.6 µM (inactive)

Cc1ccc(/C=N/c2ccc(N(C)C)cc2)o1
EC50 [15]: 1.12 µM (active)
EC50 [16]: 42.3 µM (active)
EC50 [17]: > 60 µM (not active)
EC50 [18]: 58 µM (active)
IC50 [10]: > 100 µM (inactive)
IC50 [11]: 18.1 µM (active)

O=C(C[C@H]1C[C@@H]2c3cc(NC(=O)C4CCOCC4)ccc3O[C@@H]2[C@@H](CO)O1)NCc1ccc(Oc2ccccc2)cc1
AC50 [19]: 65.1 µM (active)

COc1cc(/C=N/O)ccc1OCc1ccc(C(=O)O)cc1
EC50 [20]: 1.78 µM (active)
IC50 [21]: > 39.8 µM (not active)
AC50 [2]: 0.351 µM (active)
AC50 [22]: 6.61 µM (active)
AC50 (Paired box protein Pax-8): 5.79 µM (active)
AC50 [3]: 0.82 µM (active)
AC50 [4]: 1.49 µM (active)
AC50 [19]: 25.6 µM (active)

From ChEMBL document CHEMBL1201862, “PubChem BioAssay data set” (2004)
